Where “and” joins values, the source holds several entries; their conditions need not be identical. Equal entries are not always repeated. Where a SMILES comes first, the peptide text is derived from it. [ ]: non-standard residue; d: D form. Hyp = O=C(O)[C@@H]1C[C@@H](O)CN1
Legend:
IFN-gamma = test: Example 9 Luminex, LPS hPBMCs: IFN-gamma; assay type: cell-based, human
Description: (§1) Treatment Human PBMCs were pretreated with YY-101, YDE-011 and YDE-043 or reference compound; Xiidra® at various concentration (ranging from 1 nM to 100 uM) for 2 h before stimulation. An equal volume of 0.5% DMSO was used as a vehicle control. Then, the cells were treated with LPS at 5 ug/ml. The supernatants from treated cells were harvested at 24 h and placed in a 96 well for Luminex cytokine & chemokine profiling using a Luminex 200 multiplex assay (Luminex; R&D system, USA).
(§2) The main study arm with triplicate wells per group in a 24-well plate: • 1. Blank • 2. PBMC: 0.5% DMSO • 3. PBMC+LPS (5 ug/ml) • 4. PBMC+YY-101 100 uM • 5. PBMC+YY-101 10 uM • 6. PBMC+YY-101 1 uM • 7. PBMC+YY-101 0.1 uM • 8. PBMC+YY-101 0.01 uM • 9. PBMC+LPS (5 ug/ml)+Xiidra®100 uM • 10. PBMC+LPS (5 ug/ml)+Xiidra® 10 uM • 11. PBMC+LPS (5 ug/ml)+Xiidra® 1 uM • 12. PBMC+LPS (5 ug/ml)+Xiidra®0.1 uM • 13. PBMC+LPS (5 ug/ml)+Xiidra®0.01 uM • 14. PBMC+LPS (5 ug/ml)+Xiidra®0.001 uM • 15. PBMC+LPS (5 ug/ml)+YY-101 100 uM • 16. PBMC+LPS (5 ug/ml)+YY-101 10 uM • 17. PBMC+LPS (5 ug/ml)+YY-101 1 uM • 18. PBMC+LPS (5 ug/ml)+YY-101 0.1 uM • 19. PBMC+LPS (5 ug/ml)+YY-101 0.01 uM • 20. PBMC+LPS (5 ug/ml)+YY-101 0.001 uM • 21. PBMC+LPS (5 ug/ml)+YDE-011 100 uM • 22. PBMC+LPS (5 ug/ml)+YDE-011 10 uM • 23. PBMC+LPS (5 ug/ml)+YDE-011 1 uM • 24. PBMC+LPS (5 ug/ml)+YDE-011 0.1 uM • 25. PBMC+LPS (5 ug/ml)+YDE-011 0.01 uM • 26. PBMC+LPS (5 ug/ml)+YDE-011 0.001 uM • 27. PBMC+LPS (5 ug/ml)+YDE-043 100 uM • 28. PBMC+LPS (5 ug/ml)+YDE-043 10 uM • 29. PBMC+LPS (5 ug/ml)+YDE-043 1 uM • 30. PBMC+LPS (5 ug/ml)+YDE-043 0.1 uM • 31. PBMC+LPS (5 ug/ml)+YDE-043 0.01 uM • 32. PBMC+LPS (5 ug/ml)+YDE-043 0.001 uM
(§3) Multiplex assay was used to measure 30 cytokines and chemokines. The 1:2, 1:10 and 1:200 diluted cell supernatant and serial dilution of the standard were dispensed into a 96 well plate at 50 ul/well. Then, the pre-mixed cocktail of antibody-coated magnetic beads was dispensed at 50 ul/well and incubated at room temperature for 2 h in a horizontal orbital microplate shaker at 800±500 rpm. The beads were washed using a magnetic device to prevent loss. The biotin-antibody was dispensed in 50 ul of each well and incubated at room temperature for 1 h in a shaker at 800±500 rpm. After washing, streptavidin-PE was added at 50 ul/well and incubated at room temperature for 30 min in a shaker under the same conditions. Finally, after washing, wash buffer (100 ul/well) was added to the plate and incubated in a shaker for 2 min. The Luminex™ 200 setting were set according to the manufacturer's protocol. The data was calculated with a standard five-parameter logistic nonlinear regression analysis of the data (xPonent software 4.2, USA). The levels of cytokine/chemokine are normalized to the live cell counts (1×10^5 cells/mL) and presented as concentrations per mL (pg/mL or ng/mL).

Fas Ligand = test: Example 9 Luminex, LPS hPBMCs: Fas Ligand; assay type: cell-based, human; settings: for Fas Ligand Concentration / Fas Ligand conc/live cell / MFI, bead Fas Ligand: single replicates
Description: as §1, §2, §3

[1] = PBMC + LPS(5 ug/ml) + test article 0.001 uM, Mean
[2] = PBMC + LPS(5 ug/ml) + test article 0.001 uM, single replicates
[3] = PBMC + LPS(5 ug/ml) + test article 0.01 uM, Mean
[4] = PBMC + LPS(5 ug/ml) + test article 0.01 uM, single replicates
[5] = PBMC + LPS(5 ug/ml) + test article 0.1 uM, Mean
[6] = PBMC + LPS(5 ug/ml) + test article 0.1 uM, single replicates
[7] = PBMC + LPS(5 ug/ml) + test article 1 uM, Mean
[8] = PBMC + LPS(5 ug/ml) + test article 1 uM, single replicates
[9] = PBMC + LPS(5 ug/ml) + test article 10 uM, Mean
[10] = PBMC + LPS(5 ug/ml) + test article 10 uM, single replicates
[11] = PBMC + LPS(5 ug/ml) + test article 100 uM, Mean
[12] = PBMC + LPS(5 ug/ml) + test article 100 uM, single replicates
[13] = PBMC + LPS(5 ug/ml) + test article 0.001 uM
[14] = PBMC + LPS(5 ug/ml) + test article 0.01 uM
[15] = PBMC + LPS(5 ug/ml) + test article 0.1 uM
[16] = PBMC + LPS(5 ug/ml) + test article 1 uM
[17] = PBMC + LPS(5 ug/ml) + test article 10 uM
[18] = PBMC + LPS(5 ug/ml) + test article 100 uM

SMILES: CC(C)C[C@H](NC(=O)[C@H](CCC(N)=O)NC(=O)CNC(=O)[C@@H]1C[C@@H](O)CN1)C(=O)NCC(=O)O [YDE-043] (H-[Hyp]GQLG-OH; N-terminus and C-terminus assumed)
- Concentration (IFN-gamma) (IFN-gamma; [1]): 861.2 pg/mL
- conc/live cell (IFN-gamma) (IFN-gamma; [1]): 174.1 pg/10^5
- Concentration (IFN-gamma) (IFN-gamma; [2]): 863.3 pg/mL and 945.2 pg/mL and 774.9 pg/mL
- conc/live cell (IFN-gamma) (IFN-gamma; [2]): 196.2 pg/10^5 and 157.5 pg/10^5 and 168.5 pg/10^5
- Concentration (IFN-gamma) (IFN-gamma; [3]): 841.6 pg/mL
- conc/live cell (IFN-gamma) (IFN-gamma; [3]): 161.9 pg/10^5
- Concentration (IFN-gamma) (IFN-gamma; [4]): 857.6 pg/mL and 792.3 pg/mL and 874.8 pg/mL
- conc/live cell (IFN-gamma) (IFN-gamma; [4]): 190.6 pg/10^5 and 120.0 pg/10^5 and 175.0 pg/10^5
- Concentration (IFN-gamma) (IFN-gamma; [5]): 797.8 pg/mL
- conc/live cell (IFN-gamma) (IFN-gamma; [5]): 148.8 pg/10^5
- Concentration (IFN-gamma) (IFN-gamma; [6]): 892.0 pg/mL and 628.5 pg/mL and 872.9 pg/mL
- conc/live cell (IFN-gamma) (IFN-gamma; [6]): 178.4 pg/10^5 and 112.2 pg/10^5 and 155.9 pg/10^5
- Concentration (IFN-gamma) (IFN-gamma; [7]): 852.5 pg/mL
- conc/live cell (IFN-gamma) (IFN-gamma; [7]): 162.3 pg/10^5
- Concentration (IFN-gamma) (IFN-gamma; [8]): 734.2 pg/mL and 834.6 pg/mL and 988.7 pg/mL
- conc/live cell (IFN-gamma) (IFN-gamma; [8]): 126.6 pg/10^5 and 173.9 pg/10^5 and 186.5 pg/10^5
- Concentration (IFN-gamma) (IFN-gamma; [9]): 840.3 pg/mL
- conc/live cell (IFN-gamma) (IFN-gamma; [9]): 155.7 pg/10^5
- Concentration (IFN-gamma) (IFN-gamma; [10]): 828.9 pg/mL and 826.9 pg/mL and 865.3 pg/mL
- conc/live cell (IFN-gamma) (IFN-gamma; [10]): 159.4 pg/10^5 and 153.1 pg/10^5 and 154.5 pg/10^5
- Concentration (IFN-gamma) (IFN-gamma; [11]): 462.3 pg/mL
- conc/live cell (IFN-gamma) (IFN-gamma; [11]): 73.4 pg/10^5
- Concentration (IFN-gamma) (IFN-gamma; [12]): 480.6 pg/mL and 444.0 pg/mL
- conc/live cell (IFN-gamma) (IFN-gamma; [12]): 77.5 pg/10^5 and 69.4 pg/10^5
- Fas Ligand Concentration, Mean (Fas Ligand; [13]): 16.8 pg/mL
- Fas Ligand conc/live cell, Mean (Fas Ligand; [13]): 3.4 pg/10^5
- MFI, bead Fas Ligand, Mean (Fas Ligand; [13]): 22.7
- Fas Ligand Concentration (Fas Ligand; [13]): 17.1 pg/mL and 20.4 pg/mL and 13.1 pg/mL
- Fas Ligand conc/live cell (Fas Ligand; [13]): 3.9 pg/10^5 and 3.4 pg/10^5 and 2.8 pg/10^5
- MFI, bead Fas Ligand (Fas Ligand; [13]): 23.0 and 28.0 and 17.0
- Fas Ligand Concentration, Mean (Fas Ligand; [14]): 21.9 pg/mL
- Fas Ligand conc/live cell, Mean (Fas Ligand; [14]): 4.3 pg/10^5
- MFI, bead Fas Ligand, Mean (Fas Ligand; [14]): 30.2
- Fas Ligand Concentration (Fas Ligand; [14]): 19.1 pg/mL and 15.7 pg/mL and 31.0 pg/mL
- Fas Ligand conc/live cell (Fas Ligand; [14]): 4.2 pg/10^5 and 2.4 pg/10^5 and 6.2 pg/10^5
- MFI, bead Fas Ligand (Fas Ligand; [14]): 26.0 and 21.0 and 43.5
- Fas Ligand Concentration, Mean (Fas Ligand; [15]): 13.2 pg/mL
- Fas Ligand conc/live cell, Mean (Fas Ligand; [15]): 2.5 pg/10^5
- MFI, bead Fas Ligand, Mean (Fas Ligand; [15]): 17.2
- Fas Ligand Concentration (Fas Ligand; [15]): 14.4 pg/mL and 12.7 pg/mL and 12.4 pg/mL
- Fas Ligand conc/live cell (Fas Ligand; [15]): 2.9 pg/10^5 and 2.3 pg/10^5 and 2.2 pg/10^5
- MFI, bead Fas Ligand (Fas Ligand; [15]): 19.0 and 16.5 and 16.0
- Fas Ligand Concentration, Mean (Fas Ligand; [16]): 16.6 pg/mL
- Fas Ligand conc/live cell, Mean (Fas Ligand; [16]): 3.2 pg/10^5
- MFI, bead Fas Ligand, Mean (Fas Ligand; [16]): 22.3
- Fas Ligand Concentration (Fas Ligand; [16]): 13.7 pg/mL and 15.7 pg/mL and 20.4 pg/mL
- Fas Ligand conc/live cell (Fas Ligand; [16]): 2.4 pg/10^5 and 3.3 pg/10^5 and 3.9 pg/10^5
- MFI, bead Fas Ligand (Fas Ligand; [16]): 18.0 and 21.0 and 28.0
- Fas Ligand Concentration, Mean (Fas Ligand; [17]): 16.4 pg/mL
- Fas Ligand conc/live cell, Mean (Fas Ligand; [17]): 3.0 pg/10^5
- MFI, bead Fas Ligand, Mean (Fas Ligand; [17]): 22.0
- Fas Ligand Concentration (Fas Ligand; [17]): 16.4 pg/mL and 17.1 pg/mL and 15.7 pg/mL
- Fas Ligand conc/live cell (Fas Ligand; [17]): 3.2 pg/10^5 (2×) and 2.8 pg/10^5
- MFI, bead Fas Ligand (Fas Ligand; [17]): 22.0 and 23.0 and 21.0
- Fas Ligand Concentration, Mean (Fas Ligand; [18]): 13.2 pg/mL
- Fas Ligand conc/live cell, Mean (Fas Ligand; [18]): 2.1 pg/10^5
- MFI, bead Fas Ligand, Mean (Fas Ligand; [18]): 17.3
- Fas Ligand Concentration (Fas Ligand; [18]): 15.0 pg/mL and 11.4 pg/mL
- Fas Ligand conc/live cell (Fas Ligand; [18]): 2.4 pg/10^5 and 1.8 pg/10^5
- MFI, bead Fas Ligand (Fas Ligand; [18]): 20.0 and 14.5

— patent US20230146455A1, “TREATMENT OF INFLAMMATORY DISEASES WITH PEPTIDES AND PHARMACEUTICAL COMPOSITIONS” (Yuyu Pharma, Inc., priority 2020, published 2023)
